Source: PMC4472571 (Journal of neurochemistry, 2015)

Tests used:
Test in all cases: two-electrode voltage clamp, CFTR current in oocytes
Format in all cases: cell-based
MOR263-3 [1] = target: T1, MOR263-3 (Mus musculus, UniProt Q8VFQ2); conditions: agonist; 30 μM
T1 sequence (Q8VFQ2 1-330): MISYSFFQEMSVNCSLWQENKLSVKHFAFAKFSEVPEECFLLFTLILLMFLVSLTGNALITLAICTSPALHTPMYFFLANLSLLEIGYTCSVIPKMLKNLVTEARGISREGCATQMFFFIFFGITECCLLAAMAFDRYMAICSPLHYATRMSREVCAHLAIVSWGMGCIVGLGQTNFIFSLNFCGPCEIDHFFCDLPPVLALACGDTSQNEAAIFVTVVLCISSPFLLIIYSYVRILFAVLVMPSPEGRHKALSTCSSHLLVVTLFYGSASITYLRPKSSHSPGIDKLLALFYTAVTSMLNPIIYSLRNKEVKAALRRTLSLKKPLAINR

rhoMOR263-2 = target: T2, rhoMOR263-2 (Mus musculus, UniProt Q9EPG4); conditions: agonist; 30 μM
T2 sequence (Q9EPG4 1-317): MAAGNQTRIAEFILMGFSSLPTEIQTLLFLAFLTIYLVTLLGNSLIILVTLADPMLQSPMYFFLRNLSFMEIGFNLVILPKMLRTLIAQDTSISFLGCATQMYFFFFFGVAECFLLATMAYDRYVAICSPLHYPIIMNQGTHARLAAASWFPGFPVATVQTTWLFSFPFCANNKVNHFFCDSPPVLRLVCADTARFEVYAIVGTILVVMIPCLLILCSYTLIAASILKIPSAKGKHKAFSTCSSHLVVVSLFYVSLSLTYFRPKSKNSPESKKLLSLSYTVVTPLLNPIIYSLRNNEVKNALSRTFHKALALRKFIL

MOR263-3 [2] = target: T1, MOR263-3

EC50 (MOR263-3 [2]) [µM]	Structure (SMILES)	two-electrode voltage clamp, CFTR current in oocytes (MOR263-3 [1])	two-electrode voltage clamp, CFTR current in oocytes (rhoMOR263-2)
–	CCCCC/C=C/C=O [trans-2-octenal]	MOR263-3 responded well to trans,trans-2,4-nonadienal, trans,trans-2,4-decadienal, trans-2-octenal	–
–	CCCCCC/C=C/C=C/C=O [trans,trans-2,4-undecadienal]	–	MOR263-2 responded well to trans,trans-2,4-decadienal, trans,trans-2,4-undecadienal
–	CCCCCCC/C=C/C=O [trans-2-decenal]	–	MOR263-2 responded well to trans,trans-2,4-decadienal, trans,trans-2,4-undecadienal, trans-2-decenal
–	CCCCC/C=C/C=C/C=O [trans,trans-2,4-decadienal]	MOR263-3 responded well to trans,trans-2,4-nonadienal, trans,trans-2,4-decadienal	MOR263-2 responded well to trans,trans-2,4-decadienal
–	CCCC/C=C/C=C/C=O [trans,trans-2,4-nonadienal]	MOR263-3 responded well to trans,trans-2,4-nonadienal, trans,trans-2,4-decadienal	–
21 ± 6	CCC/C=C/C=C/C=O [trans,trans-2,4-octadienal]	–	–
